Test results reported in patent US8303989B2, “Compositions and methods for increasing the oral absorption of antimicrobials” (International Health Management Associates, Inc., priority 2000, dated 2012).
Blank lines part the entries; values can stand above or below the molecule they belong to.

Experiments:
in vivo = settings: male, Sprague-Dawley, rat, plasma, other: intraduodenal (i.d.)
[1] = Plasma ceftriaxone pharmacokinetics after intravenous administration to rats; format: in vivo, rat; settings: i.v. 20 mg CTX/kg, no capmul
Procedure: These rats were anesthetized with 5.0 mg/100 g of pentobarbital by intraperitoneal injection. […] Blood samples were collected through the jugular vein catheter at predetermined time intervals.
For comparison purposes, about 20 mg/kg of CTX was administered (i.v.) to four rats.

[2] = Plasma ceftriaxone (CTX) pharmacokinetics after intraduodenal (i.d.) administration to rats; settings: for BA00 / BA0-4 hr: i.d. 40 mg CTX eq/kg with capmul chase vs i.v. 20 mg CTX/kg
[3] = Plasma concentration of meropenem in rats after intraduodenal administration; format: in vivo, rat; settings: control: meropenem reconstituted per manufacturer, ID catheter, saline flush, no Capmul
Procedure: Meropenem was infused as a solution through an intraduodenal catheter followed by 0.2 ml. Capmul chase and a saline flush. The carrier formulation was meropenem in calcium-carrageenen to a final concentration of approximately 55% meropenem by weight. Two rats were dosed through a duodenum catheter and plasma samples were collected through 4 hours post dosage. For comparison purposes, a control group received meropenem reconstituted according to the manufacturers instructions, and infused as a solution through ID catheter followed by a saline flush.
Two fasted rats were dosed through a duodenal catheter and plasma samples were collected through 4 hours post dosage. […] A third rat expired prior to dosage, possibly due to anesthesia required for surgery. Rat #1 expired at 4 hours, possibly due to the effects of prolonged anesthesia and blood collection.

[4] = Table 5, rats, i.d. 40 mg CTX eq/kg, 0.2 ml capmul chase
[5] = Table 6, rats, i.d. 40 mg CTX eq/kg, 0.2 ml capmul chase

concentration at 30 min (in vivo; 40 mg CTX eq./kg): 10000 ng/mL
concentration at 60 min (in vivo; 40 mg CTX eq./kg): 11000 ng/mL
concentration at 90 min (in vivo; 40 mg CTX eq./kg): 9000 ng/mL
concentration at 120 min (in vivo; 40 mg CTX eq./kg): 7000 ng/mL
concentration at 180 min (in vivo; 40 mg CTX eq./kg): 6000 ng/mL
concentration at 240 min (in vivo; 40 mg CTX eq./kg): 5000 ng/mL
Cmax (in vivo; 40 mg CTX eq/kg): 17200 ng/mL
Tmax (in vivo; 40 mg CTX eq/kg): 1 h
AUC00 ([1]; Table 5, rats): 188.0 ± 6.4 μghr/ml
AUC00 ([1]; Table 6, rats): 188.0 ± 6.4 μghr/ml
BA00 ([2]; Table 5, rats): 13.9%
BA0-4 hr ([2]; Table 5, rats): 9.4%
AUC00 [2, 4]: 52.3 ± 32.4 μghr/ml
AUG0-4 hr [2, 4]: 31.7 ± 12.4 μghr/ml
BA00 ([2]; Table 6, rats): 13.9%
BA0-4 hr ([2]; Table 6, rats): 9.4%
AUC00 [2, 5]: 52.3 ± 32.4 μghr/ml
AUC0-4 hr [2, 5]: 31.7 ± 12.4 μghr/ml
Cmax [2, 5]: 17200 ng/mL
SMILES: CO/N=C(\C(=O)N[C@@H]1C(=O)N2C(C(=O)O)=C(CSc3nc(=O)c(O)nn3C)CS[C@H]12)c1csc(N)n1 [CTX, ceftriaxone]

absorption [3]: not absorbed
blood concentrations [3]: undetectable
SMILES: C[C@@H](O)[C@H]1C(=O)N2C(C(=O)O)=C(S[C@@H]3CN[C@H](C(=O)N(C)C)C3)[C@H](C)[C@H]12 [meropenem]
